Test results taken from US20220296610A1, “COMPOSITIONS AND METHODS FOR TREATMENT OF INFECTION AND NOVEL COSMECEUTICAL PREPARATIONS” (priority 2017, published 2022).
Several values for one entry are separate records, joined by “and”; a condition that tells them apart may be missing. Equal entries are not always repeated. Entries after “also recorded” stand apart in the source; their conditions may differ.

How the values were obtained:
[1] = tested on: canine basal cell carcinoma; type: in vivo, dog
From the text: Differential diagnoses included virus induced lesions such as warts which are caused by papillomaviruses, and are thus an example of anti-microbial/anti-viral activity.

Soft tissue sarcoma = experiment: Intratumoral treatment of canine cancer patient, soft tissue sarcoma; type: in vivo, dog; conditions: Patient #2
Experimental: (§1) A study was performed using NVX-207 on a canine squamous cell carcinoma of the nasal plane. […] Histology was confirmed by biopsy before treatment. Prior to each treatment, the dog was physically examined and routine blood counts and serum chemistry analyses were performed. Tumor measurements were obtained using callipers at each treatment. Tumor size was determined by the longest diameter of the target lesion or by calculating the mean of the longest diameters of the lesion treated. Tumor response was classified as stable (less than 50% change), partial—(decrease by >50%) or as a complete response if no palpable or visible evidence of tumor was available. Intralesional treatment of the patient comprised local infiltration of the local tumor, including 1 cm of the surrounding tissue, with NVX-207 in combination with cisplatin. […] Tumor recurrence was observed 18 months later. […] No further complications were observed.
(§2) Patients 1, 2, and 3 correspond to the dogs described above with squamous, soft tissue, and mammary carcinoma, respectively. Tumor size and tumor responses were determined as in described above. Intralesional treatment of the patients comprised local infiltration of the local tumor including 1 cm of the surrounding tissue—if applicable—with NVX-207 alone (for patients #2-#4) or in combination with cisplatin (patient #1, see also FIG. 3). […]

Mammary carcinoma = experiment: Intratumoral treatment of canine cancer patient, mammary carcinoma; type: in vivo, dog; conditions: Patient #3, NVX-207 alone 10 mg/ml in 2-hydroxypropyl-γ-cyclodextrin
Experimental: as §1, §2

[2] = tested on: Sweat gland adenocarcinoma; experiment: Intratumoral treatment of canine cancer patient, sweat gland adenocarcinoma; type: in vivo, dog; conditions: Patient #4, NVX-207 alone 10 mg/ml in 2-hydroxypropyl-γ-cyclodextrin
Experimental: as §1, §2

canine cancer patients = experiment: Inflammation and infection after repeated intralesional injections in dogs; type: in vivo, dog; conditions: intratumoral treatment of canine malignancies
From the text: FIGS. 3A-D show the effects of intratumoral treatment of NVX-207 in various spontaneously arising canine malignancies (before and after pictures). […] FIGS. 3B-D show NVX-207 treatment effects in a canine mammary carcinoma and two separate cases of soft tissue sarcoma, respectively. […] Microbial infections (with bacteria, fungi, viruses or protozoa) usually almost invariably accompany multiple injections under similar non-sterile conditions, because the coat of the animal cannot be efficiently sterilized. This in turn leads to unwanted treatment interruptions.
FIGS. 3B-D show NVX-207 treatment effects in a canine mammary carcinoma and two separate cases of soft tissue sarcoma, respectively. […] Microbial infections (with bacteria, fungi, viruses or protozoa) usually almost invariably accompany multiple injections under similar non-sterile conditions, because the coat of the animal cannot be efficiently sterilized. This in turn leads to unwanted treatment interruptions.
As noted above, strong evidence for an antibacterial activity of NVX-207 also comes from the canine cancer treatments. Dogs were treated over several months by repeated intralesional and peritumoral injections of NVX-207. […] This is highly unusual, since intralesional treatments under the same conditions are usually associated with a high incidence of serious local soft tissue infections leading to treatment interruptions. […]

[3] = tested on: human umbilical vein endothelial cells (HUVEC); experiment: Survival of endothelial cell cultures at 80% and 30% confluency; type: cell-based; conditions: 2.5 μM
Experimental: (§3) All cells were treated with 2.5 μM NVX-207. Percentage (means±S.E., n=3) of control-treated cells are given. […] Mean survival in NVX-207 treated fibroblasts at 80% confluency was 92% (S.E.=3.8) versus 3.8% mean survival (S.E.=0.4) at 30% confluency. […] HUVECs, keratinocytes and fibroblast cells were obtained from Lonza GmbH (Wuppertal, Germany) and cultivated according to the manufacturer's instructions.
(§4) The IC50 value of betulinic acid in human keratinocytes was recently determined to be ˜5.0 μg/ml (Tino Galgon al., Exp Dermatol. 14:736-43, 2005), while the IC50 of NVX-207 is ˜0.7 μg/ml. Consequently, the IC50 value of NVX-207 was almost 10-fold lower compared to betulinic acid on a molar basis. […] Under normal physiological circumstances, the endothelium, as well as fibroblasts and keratinocytes of the tissue like normal skin, show relatively low turn-over and limited cell divisions to maintain tissue integrity. […] Angiogenesis also plays a role in the pathogenesis of rosacea and a topical angiogenesis inhibitor (dobesilate) for treatment of rosacea has been described. Local inhibition of angiogenic factors function may prevent skin angiogenesis and inflammation in rosacea and other angiogenesis-dependent skin diseases in which a dense network of new vessels is produced and inflammatory cells are present. […]

human fibroblasts = experiment: Survival of fibroblast cultures at 80% and 30% confluency; type: cell-based; conditions: 2.5 μM; 30% vs 80% confluency
Experimental: as §3, §4

human keratinocytes = experiment: Survival of keratinocyte cultures at 80% and 30% confluency; type: cell-based; conditions: 2.5 μM; 30% vs 80% confluency
Experimental: as §3, §4

[4] = tested on: bacteria obtained from the skin surface of an individual; experiment: Filter disk growth inhibition on LB-agar plates; type: cell-based
Experimental: 10 mm filter disks (numbered 1 to 4) were soaked in 10 μl of 10.0, 5.0, 2.5, and 1.25 mg/ml of NVX-207, respectively, and placed on LB-Agar plates on which a skin bacterial isolate had been plated. 15 ml of LB/Agar was used for pouring one plate. Control disks were soaked in 10 μl of the corresponding solvent and paced in the center of the plates. LB-Agar plates were then cultivated over night at 30° C. and bacterial growth was monitored by comparing growth inhibition zones around the soaked disks. […]
Antibacterial effects of NVX-207 were tested against bacteria obtained from the skin surface of an individual. NVX-207 was used either as a cyclodextrin formulation (NVX-207 (at 10 mg/ml final concentration) was formulated in 2-hydroxypropyl-gamma-cyclodextrin (at 150 mg/ml final concentration) in water) (FIG. 6A), or a Tween 80/Ethanol formulation (described in Example 2) (FIG. 6B). Filter disks 1 to 4 were soaked in 10 μl of 10.0, 5.0, 2.5, and 1.25 mg/ml of NVX-207, respectively, and placed on LB-agar plates (total volume of 15 ml LB-agar per plate) on which a skin bacterial isolate had been plated at low density. Control disks placed in the center of the plates were soaked in 10 μl of the corresponding solvent. LB-Agar plates were then cultivated over night at 30° C. and bacterial growth was examined after 18 hours. […]

[5] = tested on: human hyperkeratotic lesion with an inflammatory component; experiment: Topical treatment of human hyperkeratotic lesion; type: in vivo; conditions: 1% topical solution
pig skin = conditions: in vivo, 2 weeks
From the text: Skin areas were visually inspected every day.
Skin areas were visually inspected every day. Photographs were taken at three day intervals. […] On day 14, pigs were anesthetized with ketamine and azaperon, and euthanized by intracardial application of T61®.

C=C(C)[C@@H]1CC[C@]2(C(=O)OCC(N)(CO)CO)CC[C@]3(C)[C@H](CC[C@@H]4[C@@]5(C)CC[C@H](OC(C)=O)C(C)(C)[C@@H]5CC[C@]43C)[C@@H]12 [NVX-207, 3-O-acetylbetulinic acid-2-amino-3-hydroxy-2-hydroxymethylpropyl ester]
reduction of lesion ([1]; 1% topical solution every second to third day, after 3 weeks): about 90%
inflammation or infection at the treatment site ([1]; dog, in vivo): absence of inflammation or infection
OS, overall survival time (Soft tissue sarcoma): 15 months
Tumor response (Soft tissue sarcoma; NVX-207 alone 10 mg/ml in 2-hydroxypropyl-γ-cyclodextrin, intratumoral): PR (PR, partial remission)
Tumor response (Mammary carcinoma): SD (SD, stable disease)
Tumor response [2]: SD (SD, stable disease)
treatment-related inflammation (canine cancer patients): completely prevented
more effective in sub-confluent (30%) than nearly confluent (80%) endothelial cells [3]: ~5 fold
more active against proliferating human fibroblasts (human fibroblasts): over 20 fold
more active against proliferating keratinocytes (human keratinocytes): ~6 fold
estimated concentration at which strong inhibitory effects were seen ([4]; Tween/Ethanol formulation, assumed distribution volume ~2.5 ml): 1 µg/mL and 1.0 µg/mL
final concentration at which growth inhibition was seen ([4]; cyclodextrin formulation, distribution volume approximately 1 ml): ~100 µg/mL
side effects on treated skin [5]: No deleterious (toxic) effects; also recorded: no reddening, inflammation or any side effects
reduction of lesion ([5]; next day after only one treatment): > 80%
macroscopic skin irritations (pig skin): No macroscopic NVX-207 related skin irritations
